Assay results taken from patent US12606541B2, “PPARg modulators and methods of use” (Eisai R&D Management Co., Ltd., priority 2020, dated 2026).

Columns and labels:
His6-TEV-PPARγ-(234-505) = target: T1, His6-TEV-PPARγ-(234-505) (Homo sapiens, UniProt P37231); test: TR-FRET Assay to Measure Co-R Peptide Recruitment to PPARγ; type: biochemical; conditions: Co-R peptide (SMRT-ID2) recruitment; top final concentration 20 μM; read-out: TR-FRET i-Ag; AC50
T1 construct: The His6-TEV-PPARγ-(234-505) protein for assay was expressed and purified; TEV cleavage site (N); made in house
T1 sequence (P37231 234-505): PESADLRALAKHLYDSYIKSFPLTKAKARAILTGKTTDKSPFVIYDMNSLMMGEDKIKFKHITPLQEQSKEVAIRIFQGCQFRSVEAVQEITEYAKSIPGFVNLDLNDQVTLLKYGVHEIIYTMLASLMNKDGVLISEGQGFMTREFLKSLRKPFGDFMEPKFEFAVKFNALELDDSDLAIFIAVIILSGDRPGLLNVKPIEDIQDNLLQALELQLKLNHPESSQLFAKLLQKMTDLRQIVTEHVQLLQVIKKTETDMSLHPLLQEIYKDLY
Outline: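 His-tagged PPARγ (or controls) was preincubated with compound for 20 minutes at room temperature, then 5 nM anti-His terbium antibody and 200 nM FITC-labeled SMRT-ID2 corepressor peptide (final) were added for a further hour. TR-FRET signal was normalized to percent response using 500 nM T0070907 and DMSO controls.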

UM-UC-9 engineered cells = test: Cell proliferation / short-term viability assay, CellTiter-Glo 144 h; type: cell-based, human; conditions: read-out: CTGlo 144 h UMUC9.5, G150
Outline: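 UM-UC-9 engineered assay-ready cells seeded at 500 cells/well in high-glucose DMEM/10% FBS, treated from dose-response plates, grown at 37° C, 5% CO2. CellTiter-Glo 2.0 luminescence read on day 7, with a day-0 pretreatment plate as T0 reference and DMSO wells as negative control.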

Q: Which AC50 (His6-TEV-PPARγ-(234-505)) does the source give for “(S)-4-(5-(2-chloro-5-fluoropyridin-4-yl)-1H-pyrazole-3-carbonyl)-N-((1r,4S)-4-hydroxy-4-(trifluoromethyl)cyclohexyl)-4-azaspiro[2.5]octane-7-carboxamide and (R)-4-(5-(2-chloro-5-fluoropyridin-4-yl)-1H-pyrazole-3-carbonyl)-N-((1r,4R)-4-hydroxy-4-(trifluoromethyl)cyclohexyl)-4-azaspiro[2.5]octane-7-carboxamide [Example 529]” here?
A: 10.6 nM

Q: And the IC50 (UM-UC-9 engineered cells)?
A: 34.2 nM

Q: With “(S)-4-(5-(5-fluoro-2-methoxypyridin-4-yl)-1H-pyrazole-3-carbonyl)-N-((1r,4S)-4-hydroxy-4-(perfluoroethyl)cyclohexyl)-4-azaspiro[2.5]octane-7-carboxamide and (S)-4-(5-(5-fluoro-2-methoxypyridin-4-yl)-1H-pyrazole-3-carbonyl)-N-((1s,4R)-4-hydroxy-4-(perfluoroethyl)cyclohexyl)-4-azaspiro[2.5]octane-7-carboxamide [Example 373]” as the substance, how does the AC50 (His6-TEV-PPARγ-(234-505)) read?
A: 11.7 nM

Q: What about the IC50 (UM-UC-9 engineered cells) of the same substance?
A: 3 nM

Q: What does the source list for “(S)-4-(5-(5-fluoro-2-methoxypyridin-4-yl)-1H-pyrazole-3-carbonyl)-N-((1s,4R)-4-(hydroxymethyl)-4-(trifluoromethyl)cyclohexyl)-4-azaspiro[2.5]octane-7-carboxamide and (S)-4-(5-(5-fluoro-2-methoxypyridin-4-yl)-1H-pyrazole-3-carbonyl)-N-((1r,4S)-4-(hydroxymethyl)-4-(trifluoromethyl)cyclohexyl)-4-azaspiro[2.5]octane-7-carboxamide [Example 408]”?
A: AC50 (His6-TEV-PPARγ-(234-505)): 6.3 nM; IC50 (UM-UC-9 engineered cells): 7.2 nM

Q: How did the AC50 (His6-TEV-PPARγ-(234-505)) turn out when “(S)-4-(5-(5-fluoro-2-methoxypyridin-4-yl)-1H-pyrazole-3-carbonyl)-N—(((S)-3-(trifluoromethyl)-5,6-dihydro-8H-[1,2,4]triazolo[3,4-c][1,4]oxazin-6-yl)methyl)-4-azaspiro[2.5]octane-7-carboxamide and (S)-4-(5-(5-fluoro-2-methoxypyridin-4-yl)-1H-pyrazole-3-carbonyl)-N—(((R)-3-(trifluoromethyl)-5,6-dihydro-8H-[1,2,4]triazolo[3,4-c][1,4]oxazin-6-yl)methyl)-4-azaspiro[2.5]octane-7-carboxamide [Example 357]” was run?
A: 45.1 nM

Q: And the IC50 (UM-UC-9 engineered cells)?
A: 2190 nM

Q: With “(S)-4-(5-(5-fluoro-2-methoxypyridin-4-yl)-1H-pyrazole-3-carbonyl)-N—((S)-1-(oxetan-3-yl)piperidin-3-yl)-4-azaspiro[2.5]octane-7-carboxamide and (S)-4-(5-(5-fluoro-2-methoxypyridin-4-yl)-1H-pyrazole-3-carbonyl)-N—((R)-1-(oxetan-3-yl)piperidin-3-yl)-4-azaspiro[2.5]octane-7-carboxamide [Example 421]” as the substance, how does the AC50 (His6-TEV-PPARγ-(234-505)) read?
A: 182 nM

Q: And the IC50 (UM-UC-9 engineered cells)?
A: 365 nM

Q: With “(S)—N-((1s,4R)-4-(1,1-difluoroethyl)-4-hydroxycyclohexyl)-4-(5-(5-fluoro-2-methoxypyridin-4-yl)-1H-pyrazole-3-carbonyl)-4-azaspiro[2.5]octane-7-carboxamide and (S)—N-((1r,4S)-4-(1,1-difluoroethyl)-4-hydroxycyclohexyl)-4-(5-(5-fluoro-2-methoxypyridin-4-yl)-1H-pyrazole-3-carbonyl)-4-azaspiro[2.5]octane-7-carboxamide [Example 375]” as the substance, how does the AC50 (His6-TEV-PPARγ-(234-505)) read?
A: 6.4 nM

Q: And the IC50 (UM-UC-9 engineered cells)?
A: 1.6 nM

Q: “(S)—N-((4S,7r)-3,3-difluoro-1-oxaspiro[3.5]nonan-7-yl)-4-(5-(5-fluoro-2-methoxypyridin-4-yl)-1H-pyrazole-3-carbonyl)-4-azaspiro[2.5]octane-7-carboxamide and (S)—N-((4R,7s)-3,3-difluoro-1-oxaspiro[3.5]nonan-7-yl)-4-(5-(5-fluoro-2-methoxypyridin-4-yl)-1H-pyrazole-3-carbonyl)-4-azaspiro[2.5]octane-7-carboxamide [Example 374]” was tested. Which AC50 (His6-TEV-PPARγ-(234-505)) did it give?
A: 13.1 nM

Q: And the IC50 (UM-UC-9 engineered cells)?
A: 15.8 nM

Q: How did the AC50 (His6-TEV-PPARγ-(234-505)) turn out when “(S)—N—((R)-1-(3-chloropyridin-2-yl)ethyl)-4-(5-(5-fluoro-2-methoxypyridin-4-yl)-1H-pyrazole-3-carbonyl)-4-azaspiro[2.5]octane-7-carboxamide and (S)—N—((S)-1-(3-chloropyridin-2-yl)ethyl)-4-(5-(5-fluoro-2-methoxypyridin-4-yl)-1H-pyrazole-3-carbonyl)-4-azaspiro[2.5]octane-7-carboxamide [Example 360]” was run?
A: 21.8 nM

Q: What about the IC50 (UM-UC-9 engineered cells) of the same substance?
A: 8.7 nM

Q: “(S)—N—((S)-1-(5-cyclopropyl-1,3,4-oxadiazol-2-yl)ethyl)-4-(5-(5-fluoro-2-methoxypyridin-4-yl)-1H-pyrazole-3-carbonyl)-4-azaspiro[2.5]octane-7-carboxamide and (S)—N—((R)-1-(5-cyclopropyl-1,3,4-oxadiazol-2-yl)ethyl)-4-(5-(5-fluoro-2-methoxypyridin-4-yl)-1H-pyrazole-3-carbonyl)-4-azaspiro[2.5]octane-7-carboxamide [Example 395]” was tested. Which AC50 (His6-TEV-PPARγ-(234-505)) did it give?
A: 274 nM

Q: And the IC50 (UM-UC-9 engineered cells)?
A: 761 nM

Q: What does the source list for “(S)—N—((S)-3,4-dihydro-2H-pyrano[3,2-b]pyridin-4-yl)-4-(5-(5-fluoro-2-methoxypyridin-4-yl)-1H-pyrazole-3-carbonyl)-4-azaspiro[2.5]octane-7-carboxamide and (S)—N—((R)-3,4-dihydro-2H-pyrano[3,2-b]pyridin-4-yl)-4-(5-(5-fluoro-2-methoxypyridin-4-yl)-1H-pyrazole-3-carbonyl)-4-azaspiro[2.5]octane-7-carboxamide [Example 366]”?
A: AC50 (His6-TEV-PPARγ-(234-505)): 28.8 nM; IC50 (UM-UC-9 engineered cells): 41.4 nM
